Experimental data as given in patent US20230106583A1, “HETEROARYL COMPOUNDS” (Vivace Therapeutics, Inc., priority 2019, published 2023).

Each compound was assayed on HEK293T cells stably transfected with 8XTBD luciferase reporter and pRLTK (assay: YAP Reporter Assay (8XTBD-driven firefly luciferase)). Details: Homo sapiens, HEK-293T; HEK293T 8XTBD luciferase reporter; 24-hr incubation with compounds; top concentration 3 μM, 10 points.
Format: cell-based
Method: HEK293T cells stably transfected with 8XTBD luciferase reporter and pRLTK in 384-well plates were treated with the test compounds, starting from 3 μM (final concentration in assay plate), 1:3 dilution, and 10 points in quadruplicates. Post 24-hr incubation with compounds at 37° C. and 5% CO2, cells were lysed and 8XTBD-driven firefly luciferase and control TK-driven renilla luciferase activities were measured using Promega Dual-Luciferase Reporter Assay System.
Reagents: The reagents used for this study are: DMEM: Invitrogen #11960077, Dual-Glo Luciferase Assay System: Promega-E2980, Puromycin Dihydrochloride: Invitrogen-A1113803, 384-well plate: PerkinElmer-6007480, L-GLUTAMINE: Invitrogen-25030164, Hygromycin B: Invitrogen-10687010, and Penicillin-Streptomycin: Merk-TMS-AB2-C
Media: The media used for this assay were: Culture Medium: DMEM+1 ug/mL puromycin+200 ug/mL hygromycin (with 10% FBS+1 mM L-glutamine); and Assay Medium: DMEM (with 10% FBS+1 mM L-glutamine+1×P/S).
Cell Plating: The appropriate media was warmed at 37° C. by water bath: Culture Medium, Assay Medium, 1*D-PBS, 0.05% trypsin-EDTA. The cells were trypsinized after removing all media, then washed with 1*sterile D-PBS and then with 2 ml 0.05% trypsin-EDTA. The cells were then incubated at RT for one minute. Then 10 ml/75 cm2 flask Assay Medium was added to each flask. Using a 10 ml pipette, the cells were then gently resuspended in the media, until the clumps completely disappeared. The cells were then transferred into 50 ml centrifuge tubes and were centrifuged at 800 rpm for 5 mins. The medium was removed and the cells were resuspended with Assay Medium. An aliquot of cells was used to count the cell density (cells/ml). The cell suspension was then diluted with Assay Medium to a concentration of 6×10^4 cells/ml. 50 ul cells suspension was then plated to 384-well plate (PerkinElmer-6007480), 3×10^3 cells/well and the cells were incubated in an incubator at 37° C., 5% CO2.
Compound Treatment: In the afternoon (incubation of the plate with 3-4 hrs), the test compounds were added by Echo, starting from 3 uM (final concentration in the assay plate), 1:3 dilution, 10 points, quadruplicates. The plate was placed at 37° C., 5% CO2 incubator for 24 hrs.
Detection: The Dual-Glo Luciferase Reagent was prepared by transferring the contents of one bottle of Dual-Glo Luciferase Buffer to one bottle of Dual-Glo Luciferase Substrate to create the Dual-Glo Luciferase Reagent. Mixing was performed by inversion until the substrate was thoroughly dissolved. After mixing, the reagent was aliquoted into 15 ml tubes. In the afternoon (24 hrs post compound treatment), the DMEM+medium in the 384 well plates were aspirated by Microplate Washer.
Measuring firefly luciferase activity: 20 ul Dual-Glo Luciferase Reagent was added to the 384-well plates. The plates were protected from light to prevent interference with the assay. The plates were shaken for 1 min followed centrifuging plates at 1000 rpm for 30 seconds. After waiting at least 10 minutes, the firefly luminescence was measured by Envision.
Measuring renilla luciferase activity: 20 ul Stop-Glo Reagent was added to the 384-well plates. The plates were shaken for 1 min and then centrifuged at 1000 rpm for 30 seconds. After waiting at least 10 minutes, the renilla luminescence was measured by Envision.
Compound IC50 and maximum inhibition on the firefly luciferase and renilla luciferase activities were reported separately.
Work on C[C@]1(c2nnc(-c3cccnc3Nc3ccc(C(F)(F)F)cc3)o2)CCNC1=O [Compound 12, (R)-3-methyl-3-(5-(2-((4-(trifluoromethyl)phenyl)amino)pyridin-3-yl)-1,3,4-oxadiazol-2-yl)pyrrolidin-2-one] yielded an IC50 of at most 0.1 µM. CNCc1nnc(-c2nccnc2Nc2ccc(C(F)(F)F)cc2)o1 [Compound 48, 3-[5-(methylaminomethyl)-1,3,4-oxadiazol-2-yl]-N-[4-(trifluoromethyl)phenyl]pyrazin-2-amine] gave an IC50 of 1 to 3 µM. For C[C@@]1(c2nnc(-c3cccnc3Nc3ccc(S(F)(F)(F)(F)F)cc3)o2)CCNC1=O [Compound 36, (3S)-3-methyl-3-[5-[2-[4-(pentafluoro-λ^6-sulfanyl)anilino]-3-pyridyl]-1,3,4-oxadiazol-2-yl]pyrrolidin-2-one], the IC50 was at most 0.1 µM. In the case of CCN(C#N)Cc1nnc(-c2nccnc2Nc2ccc(C(F)(F)F)cc2)o1 [Compound 44, ethyl-[[5-[3-[4-(trifluoromethyl)anilino]pyrazin-2-yl]-1,3,4-oxadiazol-2-yl]methyl]cyanamide], the IC50 is reported as at most 0.1 µM. Compound CN(C#N)Cc1nnc(-c2nccnc2Nc2ccc(C(F)(F)F)cc2)o1 [Compound 45, methyl-[[5-[3-[4-(trifluoromethyl)anilino]pyrazin-2-yl]-1,3,4-oxadiazol-2-yl]methyl]cyanamide] has an IC50 of at most 0.1 µM. CN(C#N)Cc1nnc(-c2cccnc2Nc2ccc(C(F)(F)F)cc2)o1 [Compound 6, methyl-[[5-[2-[4-(trifluoromethyl)anilino]-3-pyridyl]-1,3,4-oxadiazol-2-yl]methyl]cyanamide] showed an IC50 of at most 0.1 µM. CC1(c2nnc(-c3cccnc3Nc3ccc(C(F)(F)F)cc3)o2)CCNC1=O (stereo not shown) [Compound 19, 3-methyl-3-(5-(2-((4-(trifluoromethyl)phenyl)amino)pyridin-3-yl)-1,3,4-oxadiazol-2-yl)pyrrolidin-2-one] was tested, and the IC50 was at most 0.1 µM. CC1(c2nnc(-c3cccnc3Nc3ccc(C(F)(F)F)cc3)o2)NCCNC1=O (stereo not shown) [Compound 26, 3-methyl-3-[5-[2-[4-(trifluoromethyl)anilino]-3-pyridyl]-1,3,4-oxadiazol-2-yl]piperazin-2-one] showed an IC50 of at most 0.1 µM. Compound C[C@@]1(n2nnc(-c3cccnc3Nc3ccc(S(F)(F)(F)(F)F)cc3)n2)CCNC1=O [Compound 27, (3R)-3-methyl-3-[5-[2-[4-(pentafluoro-λ^6-sulfanyl)anilino]-3-pyridyl]tetrazol-2-yl]pyrrolidin-2-one] has an IC50 of 0.1 to 1 µM. CC[C@]1(c2nnc(-c3cccnc3Nc3ccc(S(F)(F)(F)(F)F)cc3)o2)CCCNC1=O [Compound 22, (3R)-3-ethyl-3-[5-[2-[4-(pentafluoro-λ6-sulfanyl)anilino]-3-pyridyl]-1,3,4-oxadiazol-2-yl]piperidin-2-one] gave an IC50 of 0.1 to 1 µM. Compound CNCc1nnc(-c2cccnc2Nc2ccc(C(F)(F)F)cc2)o1 [Compound 9, 3-[5-(methylaminomethyl)-1,3,4-oxadiazol-2-yl]-N-[4-(trifluoromethyl)phenyl]pyridin-2-amine] has an IC50 of 0.1 to 1 µM. Work on CN(C#N)CCc1nnc(-c2cccnc2Nc2ccc(C(F)(F)F)cc2)o1 [Compound 16, methyl-[2-[5-[2-[4-(trifluoromethyl)anilino]-3-pyridyl]-1,3,4-oxadiazol-2-yl]ethyl]cyanamide] yielded an IC50 of at most 0.1 µM. For C[C@]1(n2nnc(-c3cccnc3Nc3ccc(S(F)(F)(F)(F)F)cc3)n2)CCNC1=O [Compound 28, (3S)-3-methyl-3-[5-[2-[4-(pentafluoro-λ^6-sulfanyl)anilino]-3-pyridyl]tetrazol-2-yl]pyrrolidin-2-one], the IC50 was at most 0.1 µM. Compound CC[C@@]1(c2nnc(-c3cccnc3Nc3ccc(S(F)(F)(F)(F)F)cc3)o2)CCCNC1=O [Compound 21, (3S)-3-ethyl-3-[5-[2-[4-(pentafluoro-λ6-sulfanyl)anilino]-3-pyridyl]-1,3,4-oxadiazol-2-yl]piperidin-2-one] has an IC50 of at most 0.1 µM. CCN(C#N)CCc1nnc(-c2cccnc2Nc2ccc(C(F)(F)F)cc2)o1 [Compound 15, ethyl-[2-[5-[2-[4-(trifluoromethyl)anilino]-3-pyridyl]-1,3,4-oxadiazol-2-yl]ethyl]cyanamide] was tested, and the IC50 was at most 0.1 µM. With C[C@@]1(c2nnc(-c3cccnc3Nc3ccc(C(F)(F)F)cc3)o2)CCNC1=O [Compound 13, (S)-3-methyl-3-(5-(2-((4-(trifluoromethyl)phenyl)amino)pyridin-3-yl)-1,3,4-oxadiazol-2-yl)pyrrolidin-2-one] the IC50 was at most 0.1 µM. Compound C[C@]1(c2nnc(-c3cccnc3Nc3ccc(C(F)(F)F)cc3)o2)CCCNC1=O [Compound 40, (R)-3-methyl-3-(5-(2-((4-(trifluoromethyl)phenyl)amino)pyridin-3-yl)-1,3,4-oxadiazol-2-yl)piperidin-2-one] has an IC50 of 0.1 to 1 µM. CN(C#N)CCc1nnc(-c2nccnc2Nc2ccc(C(F)(F)F)cc2)o1 [Compound 1, methyl-[2-[5-[3-[4-(trifluoromethyl)anilino]pyrazin-2-yl]-1,3,4-oxadiazol-2-yl]ethyl]cyanamide] was tested, and the IC50 was at most 0.1 µM. In the case of CN1CCNC(=O)C1(C)c1nnc(-c2cccnc2Nc2ccc(C(F)(F)F)cc2)o1 (stereo not shown) [Compound 25, 3,4-dimethyl-3-[5-[2-[4-(trifluoromethyl)anilino]-3-pyridyl]-1,3,4-oxadiazol-2-yl]piperazin-2-one], the IC50 is reported as 0.1 to 1 µM. Work on CC1(c2nnc(-c3cccnc3Nc3ccc(C(F)(F)F)cc3)o2)CC(N)=NC1=O (stereo not shown) [Compound 38, 2-amino-4-methyl-4-[5-[2-[4-(trifluoromethyl)anilino]-3-pyridyl]-1,3,4-oxadiazol-2-yl]-3H-pyrrol-5-one] yielded an IC50 of at most 0.1 µM. Work on CCN(Cc1nnc(-c2cccnc2Nc2ccc(C(F)(F)F)cc2)o1)C(=O)OC(C)(C)C [Compound 8, tert-butyl N-ethyl-N-[[5-[2-[4-(trifluoromethyl)anilino]-3-pyridyl]-1,3,4-oxadiazol-2-yl]methyl]carbamate] yielded an IC50 of 1 to 3 µM. C[C@]1(c2nnc(-c3cccnc3Nc3ccc(S(F)(F)(F)(F)F)cc3)o2)CCCNC1=O [Compound 29, (3R)-3-methyl-3-[5-[2-[4-(pentafluoro-λ^6-sulfanyl)anilino]-3-pyridyl]-1,3,4-oxadiazol-2-yl]piperidin-2-one] showed an IC50 of at most 0.1 µM. CC[C@]1(c2nnc(-c3cccnc3Nc3ccc(S(F)(F)(F)(F)F)cc3)o2)CCNC1=O [Compound 23, (3R)-3-ethyl-3-[5-[2-[4-(pentafluoro-λ^6-sulfanyl)anilino]-3-pyridyl]-1,3,4-oxadiazol-2-yl]pyrrolidin-2-one] showed an IC50 of 0.1 to 1 µM. CCN(C#N)CCc1nnc(-c2nccnc2Nc2ccc(C(F)(F)F)cc2)o1 [Compound 2, ethyl-[2-[5-[3-[4-(trifluoromethyl)anilino]pyrazin-2-yl]-1,3,4-oxadiazol-2-yl]ethyl]cyanamide] gave an IC50 of at most 0.1 µM. CC[C@]1(c2nnc(-c3cccnc3Nc3ccc(C(F)(F)F)cc3)o2)CCCNC1=O [Compound 32, (3R)-3-ethyl-3-[5-[2-[4-(trifluoromethyl)anilino]-3-pyridyl]-1,3,4-oxadiazol-2-yl]piperidin-2-one] gave an IC50 of at most 0.1 µM. Work on CC[C@@]1(c2nnc(-c3cccnc3Nc3ccc(C(F)(F)F)cc3)o2)CCNC1=O [Compound 34, (3S)-3-Ethyl-3-[5-[2-[4-(trifluoromethyl)anilino]-3-pyridyl]-1,3,4-oxadiazol-2-yl]pyrrolidin-2-one] yielded an IC50 of at most 0.1 µM. For C[C@]1(n2nnc(-c3cccnc3Nc3ccc(C(F)(F)F)cc3)n2)CCNC1=O [Compound 42, (3S)-3-methyl-3-[5-[2-[4-(trifluoromethyl)anilino]-3-pyridyl]tetrazol-2-yl]pyrrolidin-2-one], the IC50 was at most 0.1 µM. In the case of CC1(c2nnc(-c3cccnc3Nc3ccc(C(F)(F)F)cc3)o2)OCCNC1=O (stereo not shown) [Compound 37, 2-methyl-2-(5-(2-((4-(trifluoromethyl)phenyl)amino)pyridin-3-yl)-1,3,4-oxadiazol-2-yl)morpholin-3-one], the IC50 is reported as at most 0.1 µM.
